Assay in all cases: NCI 60 cell line single dose screen (SRB)
Holding throughout (format): cell-based

The subject of one test is SW-620. The conditions noted are these: Homo sapiens; SW-620 (colon cancer), single dose 10^−5 M, 48 h; read-out: Growth inhibition percentage. The gist of the method:
(§1)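 Cells were plated and grown 24 h at 37 °C, 5% CO2 before compound addition from DMSO stock, then exposed 48 h. Adherent cells were fixed with cold TCA (final 10%) and suspension cells with 16% TCA. SRB-stained protein was read at 515 nm and percent growth was calculated against time-zero and untreated plates.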

The next test deals with MOLT-4. Particulars: Homo sapiens; MOLT-4 (leukemia), single dose 10^−5 M, 48 h; read-out: Growth inhibition percentage. The gist of the method: as §1
The subject of a further test is HS 578T. Particulars: Homo sapiens; HS 578T (breast cancer), single dose 10^−5 M, 48 h; read-out: Growth inhibition percentage. The procedure, abridged: as §1
Another test relates to UO-31. The conditions noted are these: Homo sapiens; UO-31 (renal cancer), single dose 10^−5 M, 48 h; read-out: Growth inhibition percentage. The procedure, abridged:
as §1

Another test deals with HT29. Particulars: Homo sapiens, HT-29; HT29 (colon cancer), single dose 10^−5 M, 48 h; read-out: Growth inhibition percentage. The gist of the method:
as §1

The subject of a further test is SK-OV-3. Particulars: Homo sapiens; SK-OV-3 (ovarian cancer), single dose 10^−5 M, 48 h; read-out: Growth inhibition percentage. The procedure, abridged:
as §1

For the next test, the system named is K-562. Particulars: Homo sapiens, K562; K-562 (leukemia), single dose 10^−5 M, 48 h; read-out: Growth inhibition percentage. The gist of the method:
as §1

The test system of a further test is EKVX. The conditions noted are these: Homo sapiens; EKVX (non-small cell lung cancer), single dose 10^−5 M, 48 h; read-out: Growth inhibition percentage. The procedure, abridged: as §1
A further test deals with RPMI-8226. Particulars: Homo sapiens; RPMI-8226 (leukemia), single dose 10^−5 M, 48 h; read-out: Growth inhibition percentage. The procedure, abridged: as §1
The next test concerns PC-3. Particulars: Homo sapiens; PC-3 (prostate cancer), single dose 10^−5 M, 48 h; read-out: Growth inhibition percentage. The procedure, abridged:
as §1

Another test relates to T-47D. Particulars: Homo sapiens, T47D; T-47D (breast cancer), single dose 10^−5 M, 48 h; read-out: Growth inhibition percentage. The procedure, abridged:
as §1

Another test has as its system NCI-H522. Particulars: Homo sapiens; NCI-H522 (non-small cell lung cancer), single dose 10^−5 M, 48 h; read-out: Growth inhibition percentage. The gist of the method: as §1
The next test relates to MALME-3M. Particulars: Homo sapiens; MALME-3M (melanoma), single dose 10^−5 M, 48 h; read-out: Growth inhibition percentage. The procedure, abridged: as §1
The test system of the next test is SK-MEL-28. Particulars: Homo sapiens; SK-MEL-28 (melanoma), single dose 10^−5 M, 48 h; read-out: Growth inhibition percentage. The gist of the method: as §1
The test system of another test is HOP-92. The conditions noted are these: Homo sapiens; HOP-92 (non-small cell lung cancer), single dose 10^−5 M, 48 h; read-out: Growth inhibition percentage. The procedure, abridged: as §1
A further test deals with M14. The conditions noted are these: Homo sapiens; M14 (melanoma), single dose 10^−5 M, 48 h; read-out: Growth inhibition percentage. The procedure, abridged: as §1
The next test concerns NCI-H322M. Particulars: Homo sapiens; NCI-H322M (non-small cell lung cancer), single dose 10^−5 M, 48 h; read-out: Growth inhibition percentage. The procedure, abridged:
as §1

The test system of the next test is UACC-257. Particulars: Homo sapiens; UACC-257 (melanoma), single dose 10^−5 M, 48 h; read-out: Growth inhibition percentage. The gist of the method: as §1
A further test has as its system OVCAR-5. The conditions noted are these: Homo sapiens; OVCAR-5 (ovarian cancer), single dose 10^−5 M, 48 h; read-out: Growth inhibition percentage. The gist of the method:
as §1

The next test relates to MDA-MB-231/ATCC. Particulars: Homo sapiens; MDA-MB-231/ATCC (breast cancer), single dose 10^−5 M, 48 h; read-out: Growth inhibition percentage. The gist of the method:
as §1

The subject of another test is CCRF-CEM. Particulars: Homo sapiens; CCRF-CEM (leukemia), single dose 10^−5 M, 48 h; read-out: Growth inhibition percentage. The gist of the method: as §1

SMILES strings stand for the structures.

The term inhibition denotes the drop in the measured response relative to a control, in per cent.

As to `COc1cc(C=NNc2ncnc3c2c(C)nn3-c2ccc(F)cc2)ccc1O` [Compound 10b, 1–(4-Fluorophenyl)-4–(2-(4-hydroxy-3-methoxybenzylidene)-hydrazinyl)-3-methyl-1H-pyrazolo[3,4-d]pyrimidine], the inhibition at 10 µM with SW-620 is -30.9%; in the test on MOLT-4 it was 38.3%; with HS 578T, 0.89%; in the test on UO-31, 35.6%; in the test on HT29, 7.7%; with SK-OV-3 it was 0.81%. For the same molecule, the inhibition at 10 µM in the test with K-562 stood at 24.2%; with EKVX, 12.4%; with RPMI-8226 it was 7.52%; in the test on PC-3 it was 27%; with T-47D, 20.1%; with NCI-H522 it was 27.1%. Besides, the inhibition at 10 µM with MALME-3M is -12.4%; in the test on SK-MEL-28, -7.04%; with HOP-92, 39.5%; in the test with M14, -2.1%; in the test with NCI-H322M, 14.4%; in the test on UACC-257, -14.1%. Besides, the values for the inhibition at 10 µM in the test on OVCAR-5, with MDA-MB-231/ATCC and in the test on CCRF-CEM were -30.9%, 15.6% and 38%, respectively.
On to `Cc1ccc(Nc2ncnc3c2c(C)nn3-c2ccc(F)cc2)cc1` [Compound 7c, 1–(4-Fluorophenyl)-3-methyl-N-(p-tolyl)-1H-pyrazolo[3,4-d]-pyrimidin-4-amine], for which the inhibition at 10 µM with SW-620 was -8.11%; in the test with MOLT-4 it was 1.83%; in the test with HS 578T it was 0.7%; in the test with UO-31, 8.66%; in the test with HT29, 11.7%; in the test with SK-OV-3, -16.7%. Besides, the inhibition at 10 µM with K-562 is 0.26%; in the test with EKVX it was 3.39%; in the test with RPMI-8226, -4.47%; in the test with PC-3 it was 7.23%; in the test with T-47D it was 14.6%; with NCI-H522, 11%. In addition, the inhibition at 10 µM in the test on MALME-3M is 1.7%; in the test on SK-MEL-28, -11.1%; in the test on HOP-92, 3.79%; in the test with M14 it was 0.75%; with NCI-H322M, 10%; in the test on UACC-257, -7.62%. For the same molecule, the inhibition at 10 µM in the test with OVCAR-5 is -0.5%; with MDA-MB-231/ATCC, -2.67%; with CCRF-CEM, -8.18%.
With `Cc1nn(-c2ccc(F)cc2)c2ncnc(Cl)c12` [Compound 6, 4-Chloro-1–(4-fluorophenyl)-3-methyl-1H-pyrazolo[3,4-d]pyrimidine], the inhibition at 10 µM in the test with SW-620 was -2.88%; in the test with MOLT-4, 13.8%; in the test on HS 578T it was 4.54%; in the test with UO-31, 11.8%; in the test on HT29, 9.55%; in the test on SK-OV-3 it was 13.7%. Besides, the inhibition at 10 µM in the test with K-562 came to 15.4%; in the test on EKVX it was 9.08%; in the test on RPMI-8226, 2.21%; in the test on PC-3, 14.8%; in the test on T-47D, 0.28%; in the test with NCI-H522 it was 59%. The inhibition at 10 µM in the test on MALME-3M is -4.3%; in the test with SK-MEL-28, -4.92%; in the test on HOP-92, 7.91%; in the test on M14, 5.89%; in the test with NCI-H322M it was 5.32%; in the test with UACC-257 it was 17.4%. The inhibition at 10 µM in the test on OVCAR-5 is -12.3%; in the test on MDA-MB-231/ATCC it was 10.8%; in the test with CCRF-CEM, 1.47%.

The values are drawn from paper PMC6352943, “Novel pyrazolo[3,4-d]pyrimidines: design, synthesis, anticancer activity, dual EGFR/ErbB2 receptor tyrosine kinases inhibitory activity, effects on cell cycle profile and caspase-3-mediated apoptosis” (Journal of Enzyme Inhibition and Medicinal Chemistry, 2019).
